Assay results reported in patent publication US10238670B2, “9-aminomethyl minocycline compounds and methods of use thereof in urinary tract infection (UTI) treatment” (Paratek Pharmaceuticals, Inc., priority 2016, dated 2019).
Several values for one entry are separate records, joined by “and”; a condition that tells them apart may be missing. Equal entries are not always repeated.

Key:
P. aeruginosa = assay: In vitro MIC (Data from CMI 07); format: cell-based; settings: N=22
[1] = tested on: E. coli isolates, including ESBL+ and quinolone resistance phenotypes; assay: In vitro MIC, 2010 surveillance study of 4171 E. coli isolates; format: cell-based
plasma proteins = assay: In vitro plasma protein binding (ultrafiltration), human plasma; format: in vitro ADME
Method: For human binding studies, plasma was obtained from the blood of three healthy male volunteers. Plasma was defrosted from storage at -20° C. before use, and pools of human plasma were used for all studies. Plasma from mouse, rat, and monkey was supplied by Harlan Laboratories Ltd. (Netherlands), Milan […], Switzerland) and Centre de Primatologie ULP (France), respectively. Protein binding was measured using an ultrafiltration method. To asses the suitability of ultrafiltration, the recovery and free permeation of [^14C]-labelled Compound 1 in PBS buffer were investigated. […] Three 1 mL aliquots per concentration were introduced into […]® devices and spun for 1 min at 2000 g (filtrate ≤500 μL). Samples of the spiked solutions, the filtrate and retentate were quantified by LSC; volumes were determined by weighing. The free permeation of the test compound in PBS was evaluated as follows: Ratio=[Cuf/Cr] with Cuf being the concentration in the ultrafiltrate (ng/mL) and Cr the concentration in the retentate (ng/mL). […] Specifically, concentrations of Compound 1 was determined by an UPLC-MS/MS method. […] Standards and quality control samples were prepared on the day of analysis by adding a 20 μL aliquot of an appropriate standard or QC spiking solution in methanol. A 25 μL aliquot of the internal standard (at 200 ng/mL in methanol) was added to each well except blanks. […] Samples were processed using protein precipitation. A 0.5 mL aliquot of an acetonitrile/ethanol/acetic acid mixture (90:10:0.1, v:v:v) was added to each sample; samples were mixed using a vortex mixer for 10 minutes, and centrifuged 3800 rpm (approximately 2500×g) for 10 min at 10° C. A 500 μL aliquot of the supernatant transferred to a clean 96 well plate, 2 ml. An aliquot 500 μL of 80:20 (water:acetonitrile) was added to all the samples. Samples were mixed by vortexing for 0.5 min. A 6 μL sample volume was injected into the UPLC/MS/MS system for analysis. Samples were then assayed on an UPLC-MS/MS system, consisting of an Acquity UPLC with a quaternary pump, a ample manager, and sample organizer, coupled to a Sciex API4000 mass spectrometer running Analyst software version 1.4.2 (Foster City, Calif., USA). The mass spectrometer was operated in the positive ion mode, using electro spray ionization, with a source temperature of 500° C. Chromatographic separation was carried out on an Acquity BEH C18, 50×2.1, 1.7 particle (Waters, Mass.) at a flow rate of 1.0 mL/min. The column temperature was maintained at 65° C. […] The ions monitored for Compound 1 was the parent [M+H]^+ ion at m/z 557.3.0; the product ions at m/z 453.4. Data processing: Calibration curves (y=x^2+xb+c or y=ax+b), represented by the plots of the respective peak area ratios (y) of the analyte […] versus the concentrations (x) of the calibration samples, were generated using weighted (1/x^2 or 1/x) quadratic least-squares regression as the mathematical model. The quantification was performed using Analyst software and Watson LIMS version 7.2.0.01. Concentrations in QC and study samples were calculated from the resulting peak area ratios and interpolation from the regression equations of the respective calibration curves. The lower limit of quantitation was 5.0 ng/mL for Compound 1.

K. pneumoniae FQS = assay: In vitro MIC, 2010 surveillance isolates; format: cell-based, Klebsiella pneumoniae; settings: N=1561

## CN(C)c1cc(CNCC(C)(C)C)c(O)c2c1C[C@H]1C[C@H]3[C@H](N(C)C)C(O)=C(C(N)=O)C(=O)[C@@]3(O)C(O)=C1C2=O [Compound 1, 9-[(2,2-dimethyl-propylamino)-methyl]-minocycline]
P. aeruginosa; MIC 1 μg/ml
  Cumulative % Inhibition at MIC: 0%
P. aeruginosa; MIC 2 μg/ml
  Cumulative % Inhibition at MIC: 0%
P. aeruginosa; MIC 4 μg/ml
  Cumulative % Inhibition at MIC: 0%
P. aeruginosa; MIC 8 μg/ml
  Cumulative % Inhibition at MIC: 0%
P. aeruginosa; MIC 16 μg/ml
  Cumulative % Inhibition at MIC: 9.1%
P. aeruginosa; MIC ≤0.5 μg/ml, Data from CMI 07
  Cumulative % Inhibition at MIC: 0%
P. aeruginosa; MIC ≥32 μg/ml
  Cumulative % Inhibition at MIC: 100%
[1]
  isolates with an MIC value <4 μg/mL: > 97%
Plasma proteins; human plasma, 10-10,000 ng/mL
  Mean (SD) Bound Fraction: 21% and 21.3 (9.72) %
  concentration dependency of plasma protein binding: not concentration dependent
Plasma proteins; human plasma, 10-10,000 ng/mL, mean±SD
  mean unbound protein fraction (fu) in plasma: 78.7±9.7%
Plasma proteins; male, human, plasma, Concentration 100 ng/mL
  fraction unbound at 100 ng/mL: 0.656
Plasma proteins; male, human, plasma, Concentration 1,000 ng/mL
  fraction unbound at 1000 ng/mL: 0.878
Plasma proteins; male, human, plasma, Concentration 10,000 ng/mL
  fraction unbound at 10000 ng/mL: 0.798
Plasma proteins; male, human, plasma, Mean over concentrations
  fraction unbound: 0.787
K. pneumoniae FQS; MIC 1 μg/ml
  Cumulative % Inhibition at MIC: 29.6%
K. pneumoniae FQS; MIC 2 μg/ml
  Cumulative % Inhibition at MIC: 79.3%
K. pneumoniae FQS; MIC 4 μg/ml
  Cumulative % Inhibition at MIC: 92.5%
K. pneumoniae FQS; MIC 8 μg/ml
  Cumulative % Inhibition at MIC: 95.9%
K. pneumoniae FQS; MIC 16 μg/ml
  Cumulative % Inhibition at MIC: 98.5%
K. pneumoniae FQS; MIC ≤0.5 μg/ml, listed as head image P00011
  Cumulative % Inhibition at MIC: 2.4%
K. pneumoniae FQS; MIC ≥32 μg/ml
  Cumulative % Inhibition at MIC: 100%
